Converted amounts (≈) assume the structure as drawn. Read-outs that look alike come from different tables or passages of the source.
How the values were obtained:
[1] = tested on: C. albicans YEM-30 (wild-type, no pump deleted); experiment: microbe, parasite or virus in culture; type: cell-based; conditions: Candida albicans, read-out: MIC Flu alone
[2] = tested on: C. albicans YEM-20 (CDR1 deleted); experiment: microbe, parasite or virus in culture; type: cell-based; conditions: Candida albicans, read-out: MIC Flu alone
[3] = tested on: C. albicans YEM-24 (CDR1, CDR2 deleted); experiment: microbe, parasite or virus in culture; type: cell-based; conditions: Candida albicans, read-out: MIC Flu alone
[4] = tested on: C. albicans YEM-21 (BEN deleted); experiment: microbe, parasite or virus in culture; type: cell-based; conditions: Candida albicans, read-out: MIC Flu alone
[5] = tested on: C. albicans YEM-29 (BEN, FLU1 deleted); experiment: microbe, parasite or virus in culture; type: cell-based; conditions: Candida albicans, read-out: MIC Flu alone
[6] = tested on: C. albicans YEM-27 (CDR1, CDR2, BEN, FLU1 deleted); experiment: microbe, parasite or virus in culture; type: cell-based; conditions: Candida albicans, read-out: MIC Flu alone
[7] = tested on: C. albicans YEM-10 (low level CDR1 expressor); experiment: microbe, parasite or virus in culture; type: cell-based; conditions: Candida albicans, read-out: MIC Flu alone
[8] = tested on: C. albicans YEM-14 (low level CDR1 expressor); experiment: microbe, parasite or virus in culture; type: cell-based; conditions: Candida albicans, read-out: MIC Flu alone
[9] = tested on: C. albicans YEM-12 (low level CDR1 expressor); experiment: microbe, parasite or virus in culture; type: cell-based; conditions: Candida albicans, read-out: MIC Flu alone
[10] = tested on: C. glabrata YEM-16 (low level CgBEN and CgCDR expression); experiment: microbe, parasite or virus in culture; type: cell-based; conditions: YEM-16; fluconazole alone
[11] = tested on: C. glabrata YEM-18 (low level CgBEN and CgCDR expression); experiment: microbe, parasite or virus in culture; type: cell-based; conditions: YEM-18; fluconazole alone
[12] = tested on: C. glabrata YEM-17 (CgCDR overexpressor); experiment: microbe, parasite or virus in culture; type: cell-based; conditions: YEM-17; fluconazole alone
[13] = tested on: C. glabrata YEM-19 (CgCDR overexpression, higher than YEM-17); experiment: microbe, parasite or virus in culture; type: cell-based; conditions: YEM-19; fluconazole alone
[14] = tested on: C. krusei YEM-52 (ATCC 90878), wild type; experiment: Broth dilution MIC, fluconazole with/without milbemycin oxime (Table 6); type: cell-based; conditions: Pichia kudriavzevii, ATCC90878; YEM-52 (ATCC 90878); read-out: MIC Flu alone
[15] = tested on: C. albicans YEM-15 (CDR1 & CDR2 overexpressor); experiment: microbe, parasite or virus in culture; type: cell-based; conditions: Candida albicans
[16] = tested on: C. glabrata YEM-17 (CgCDR overexpressor); experiment: microbe, parasite or virus in culture; type: cell-based; conditions: Nakaseomyces glabratus
[17] = tested on: C. krusei YEM-71; experiment: Broth dilution checkerboard, azoles and terbinafine with milbemycin α9 (Table 8); type: cell-based; conditions: Pichia kudriavzevii
[18] = tested on: S. cerevisiae YEM-1 overexpressing CDR1 (C. albicans); experiment: microbe, parasite or virus in culture; type: cell-based; conditions: Saccharomyces cerevisiae
[19] = tested on: S. cerevisiae YEM-37 overexpressing CDR2 (C. albicans); experiment: microbe, parasite or virus in culture; type: cell-based; conditions: Saccharomyces cerevisiae
[20] = tested on: S. cerevisiae YEM-39 overexpressing CgCDR (C. glabrata); experiment: microbe, parasite or virus in culture; type: cell-based; conditions: Saccharomyces cerevisiae
[21] = tested on: pCgBEN (MF) efflux pump in S. cerevisiae YEM-40; type: cell-based, C. glabrata
[22] = tested on: YEM 13 C. albicans BEN up; experiment: microbe, parasite or virus in culture; type: cell-based; conditions: Candida albicans, read-out: FLU MIC
[23] = tested on: YEM 15 C. albicans, CDR1CDR2 up; experiment: microbe, parasite or virus in culture; type: cell-based; conditions: Candida albicans, read-out: FLU MIC
[24] = tested on: YEM 53 C. krusei; experiment: FEPI MIC with/without 1/8 fluconazole MIC at 24 hrs (Table 11); type: cell-based; conditions: Pichia kudriavzevii; YEM 53; NCCLS criteria for azoles; read-out: FLU MIC
[25] = tested on: YEM 51 C. glabrata wt; experiment: as above; type: cell-based; conditions: Nakaseomyces glabratus; YEM 51; NCCLS criteria for azoles; read-out: FLU MIC
[26] = tested on: YEM 30 C. albicans wt; experiment: as above; type: cell-based; conditions: Candida albicans, YEM 30
[27] = tested on: YEM 24 C. albicans ΔCDR1, ΔCDR2; experiment: microbe, parasite or virus in culture; type: cell-based; conditions: Candida albicans, read-out: FLU MIC
[28] = tested on: YEM 27 C. albicans ΔCDR1ΔCDR2 ΔBENΔFLU1; experiment: microbe, parasite or virus in culture; type: cell-based; conditions: Candida albicans, read-out: FLU MIC
[29] = tested on: C. albicans ΔCDR1 ΔCDR2 ΔBEN ΔFLU1; type: cell-based
From the text: (§1) The activity of one milbemycin was also studied in checker-board assays. […] It provides information on the extent of synergism between the two drugs and the concentrations at which synergism can be detected. Using differential surface analysis, pick of synergy volumes are quantified for each combination of drugs and strain tested in a traditional checkerboard assay (Table 13).

[30] = tested on: C. albicans, CDR1, CDR2, up; type: cell-based
From the text: as §1

[31] = tested on: C. glabrata, CgCDR up; type: cell-based
From the text: as §1

[32] = tested on: C. albicans BEN up; experiment: MacSynergy 3-D synergy volume, checkerboard (Table 13); type: cell-based
From the text: as §1

[33] = tested on: C. krusei; experiment: as above; type: cell-based
From the text: as §1

[34] = tested on: C. albicans clinical isolates (n = 33); experiment: microbe, parasite or virus in culture; type: cell-based; conditions: Candida albicans
[35] = tested on: C. glabrata clinical isolates (n = 12); experiment: microbe, parasite or virus in culture; type: cell-based; conditions: Nakaseomyces glabratus
[36] = tested on: C. lipolytica; experiment: microbe, parasite or virus in culture; type: cell-based; conditions: Yarrowia lipolytica, read-out: Fluconazole MIC, alone
[37] = tested on: C. tropicalis; experiment: microbe, parasite or virus in culture; type: cell-based; conditions: Candida tropicalis, read-out: Fluconazole MIC, alone
[38] = tested on: C. neoformans; experiment: microbe, parasite or virus in culture; type: cell-based, Cryptococcus neoformans; conditions: Cryptococcus neoformans, read-out: Fluconazole MIC, alone
[39] = tested on: C. krusei; experiment: microbe, parasite or virus in culture; type: cell-based; conditions: Pichia kudriavzevii, read-out: Fluconazole MIC, alone
[40] = tested on: S. cerevisiae YEM-3 parent strain (no pump); experiment: microbe, parasite or virus in culture; type: cell-based; conditions: Saccharomyces cerevisiae, read-out: MIC for the parent strain to fluconazole
[41] = tested on: C. albicans, wt; experiment: MacSynergy 3-D synergy volume, checkerboard (Table 13); type: cell-based
From the text: as §1

[42] = tested on: C. glabrata, wt; experiment: as above; type: cell-based
From the text: as §1

[43] = read-out: Fluconazole MIC90, alone

## OC(Cn1cncn1)(Cn1cncn1)c1ccc(F)cc1F [Fluconazole, fluconazole, reference compound]
[1]
  MIC: 0.5 µg/mL (≈ 1.63 µM)
[2]
  MIC: 0.125 µg/mL (≈ 0.408 µM)
[3]
  MIC: 0.125 µg/mL (≈ 0.408 µM)
[4]
  MIC: 0.25 µg/mL (≈ 0.816 µM)
[5]
  MIC: 0.25 µg/mL (≈ 0.816 µM)
[6]
  MIC: 0.03 µg/mL (≈ 0.098 µM)
[7]
  MIC: 0.25 µg/mL (≈ 0.816 µM)
[8]
  MIC: 0.125 µg/mL (≈ 0.408 µM)
[9]
  MIC: 2 µg/mL (≈ 6.53 µM)
[10]
  Fluconazole MIC with 0 μg/ml milbemycin β1: 16 µg/mL
[11]
  Fluconazole MIC with 0 μg/ml milbemycin β1: 8 µg/mL
[12]
  Fluconazole MIC with 0 μg/ml milbemycin β1: 64 µg/mL
[13]
  Fluconazole MIC with 0 μg/ml milbemycin β1: 128 µg/mL
[14]
  MIC: 64 µg/mL (≈ 209 µM)
[15]; read-out: Fluconazole MIC
  MIC: 128 µg/mL (≈ 418 µM)
[16]; read-out: Fluconazole MIC
  MIC: 128 µg/mL (≈ 418 µM)
[17]; YEM71, read-out: Fluconazole MIC
  MIC: 128 µg/mL
[18]; read-out: Fluconazole MIC
  MIC: 128 µg/mL (≈ 418 µM)
[19]; read-out: Fluconazole MIC
  MIC: 4 µg/mL (≈ 13.1 µM)
[20]; read-out: Fluconazole MIC
  MIC: 64 µg/mL (≈ 209 µM)
[21]
  Fluconazole MIC: 32 µg/mL
[22]
  MIC: 64 µg/mL (≈ 209 µM)
[23]
  MIC: 64 µg/mL (≈ 209 µM)
[24]
  MIC: 64 µg/mL (≈ 209 µM)
[25]
  MIC: 64 µg/mL (≈ 209 µM)
[26]; read-out: FLU MIC at 40 hrs, read at 40 hrs
  MIC: 64 µg/mL (≈ 209 µM)
[26]; read at 24 hours, read-out: FLU MIC at 24 hours
  MIC: 0.5 µg/mL (≈ 1.63 µM)
[27]
  MIC: 0.25 µg/mL (≈ 0.816 µM)
[28]
  MIC: ≤ 0.125 µg/mL
[29]
  Synergy Volume, fluconazole + one milbemycin (FEPI, not named): 0.08
[30]
  Synergy Volume, fluconazole + one milbemycin (FEPI, not named): 2337
[31]
  Synergy Volume, fluconazole + one milbemycin (FEPI, not named): 1815
[32]
  Synergy Volume, fluconazole + one milbemycin (FEPI, not named): 196
[33]
  Synergy Volume, fluconazole + one milbemycin (FEPI, not named): 1178
[34]; read-out: Fluconazole MIC50, alone, C. albicans n = 33, MIC (80%) in YPD
  MIC50: 1 µg/mL (≈ 3.27 µM)
[34]; [43]
  MIC90: > 128 µg/mL
[35]; read-out: Fluconazole MIC50, alone
  MIC50: 32 µg/mL (≈ 104 µM)
[35]; [43]
  MIC90: > 128 µg/mL
[36]
  MIC: 128 µg/mL (≈ 418 µM)
[37]
  MIC: > 128 µg/mL
[38]
  MIC: > 128 µg/mL
[39]
  MIC: 128 µg/mL (≈ 418 µM)
[40]
  MIC: 0.5 µg/mL (≈ 1.63 µM)

## CN(C/C=C/C#CC(C)(C)C)Cc1cccc2ccccc12 [Terbinafine, terbinafine]
[15]; read-out: Terbinafine MIC
  MIC: 128 µg/mL (≈ 439 µM)
[16]; read-out: Terbinafine MIC
  MIC: 128 µg/mL (≈ 439 µM)
[17]; YEM71, read-out: Terbinafine MIC
  MIC: 128 µg/mL
[18]; read-out: Terbinafine MIC
  MIC: 128 µg/mL (≈ 439 µM)
[19]; read-out: Terbinafine MIC
  MIC: 2 µg/mL (≈ 6.86 µM)
[20]; read-out: Terbinafine MIC
  MIC: 4 µg/mL (≈ 13.7 µM)
[29]
  Synergy Volume, terbinafine + one milbemycin (FEPI, not named): 169
[30]
  Synergy Volume, terbinafine + one milbemycin (FEPI, not named): 1386
[31]
  Synergy Volume, terbinafine + one milbemycin (FEPI, not named): 392
[32]
  Synergy Volume, terbinafine + one milbemycin (FEPI, not named): 500
[41]
  Synergy Volume, terbinafine + one milbemycin (FEPI, not named): 2790
[42]
  Synergy Volume, terbinafine + one milbemycin (FEPI, not named): 478
[33]
  Synergy Volume, terbinafine + one milbemycin (FEPI, not named): 1517

— US6495591B1, “Fungal efflux pump inhibitors” (Essential Therapeutics, Inc., priority 1997, dated 2002)
